Experimental findings from ChEMBL document CHEMBL1201862, “PubChem BioAssay data set” (2004) are described below.

Structures are written as SMILES. Active and inactive are the calls of the source.

Experiment [1] deals with T1, Neuropeptides B/W receptor type 1 (Homo sapiens, UniProt P48145).
T1 sequence (P48145 whole entry): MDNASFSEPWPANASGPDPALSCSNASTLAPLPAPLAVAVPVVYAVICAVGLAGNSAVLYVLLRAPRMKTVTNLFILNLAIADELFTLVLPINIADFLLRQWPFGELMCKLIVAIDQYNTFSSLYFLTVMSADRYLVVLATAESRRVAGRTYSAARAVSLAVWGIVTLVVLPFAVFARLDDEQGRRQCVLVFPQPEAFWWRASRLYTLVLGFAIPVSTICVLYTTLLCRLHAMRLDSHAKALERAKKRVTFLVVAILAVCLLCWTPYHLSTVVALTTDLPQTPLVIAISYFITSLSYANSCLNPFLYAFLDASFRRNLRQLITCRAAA
Description: Fluorescence-based dose response cell-based high throughput screening assay to identify antagonists of the G-protein coupled receptor 7 (GPR7). [Related pubchem assays: 1952 (Screening assay (GPR7 antagonists).), 1880 (Summary AID.)]. Type of experiment: functional.

In experiment [2] the target is Melanin-concentrating hormone receptor 1 (Homo sapiens, UniProt Q99705). Description: Fluorescence-based counterscreen for antagonists of the G-protein coupled receptor 7 (GPR7): cell-based high throughput dose response assay to identify antagonists of the melanin-concentrating hormone receptor 1 (MCHR1). Type of experiment: functional. Background: The purpose of a counterscreen is to sort out artefacts and off-target activity.
Sequence of Melanin-concentrating hormone receptor 1 (Q99705 whole entry): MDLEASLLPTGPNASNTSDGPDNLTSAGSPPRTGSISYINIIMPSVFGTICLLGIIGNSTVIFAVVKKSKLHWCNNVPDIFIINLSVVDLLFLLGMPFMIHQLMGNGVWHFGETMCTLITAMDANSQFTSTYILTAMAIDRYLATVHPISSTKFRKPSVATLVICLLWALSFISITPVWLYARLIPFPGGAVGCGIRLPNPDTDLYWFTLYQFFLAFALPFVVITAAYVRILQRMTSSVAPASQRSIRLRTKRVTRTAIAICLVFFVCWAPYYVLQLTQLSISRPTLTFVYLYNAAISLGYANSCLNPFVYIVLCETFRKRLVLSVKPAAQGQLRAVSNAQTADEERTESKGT

Experiment [3] addresses T2, Voltage-gated N-type calcium channel alpha-1B subunit/Amyloid beta A4 precursor protein-binding family A member 1 (Homo sapiens, UniProt Q00975+Q02410). It is filed as protein assay.
For experiment [4], the target named is T2, Voltage-gated N-type calcium channel alpha-1B subunit/Amyloid beta A4 precursor protein-binding family A member 1. Type of experiment: protein assay. The source holds these as a separate data set.
In a further experiment the test system is HeLa. Description: viability loss in HeLa cells – cell-based, 24 h, cherry-picked samples, cytotoxicity control, dose response (AID 504726).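 Also: potency for cytotoxicity as loss of luminescence signal.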 Type of experiment: functional. The note with it: Homo sapiens.
Experiment [5] addresses DNA dC->dU-editing enzyme APOBEC-3A (Homo sapiens, UniProt P31941). Description: Dose Response confirmation of small molecule APOBEC3A DNA Deaminase Inhibitors via a fluorescence-based single-stranded DNA deaminase assay. [Related pubchem assays (depositor defined):AID493011, AID493024]. It is filed as functional.
Experiment [6] concerns the target DNA dC->dU-editing enzyme APOBEC-3G (Homo sapiens, UniProt Q9HC16). It is filed as functional.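 Also: Dose-response counterscreen measuring inhibition of APOBEC3G DNA deaminase activity, run while confirming APOBEC3A inhibitors.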
Experiment [7] in a line: HPDE-C7 pancreatic duct cell viability loss – fluorescence, HTS (AID 430). Type of experiment: functional, cell-based. The note with it: Homo sapiens.
The nature of experiment [8]: viability loss of HPDE-C7K cells – cell-based, fluorescence, HTS, primary screen (AID 431). Type of experiment: functional. The note with it: Homo sapiens.
The target in experiment [9] is Neurotensin receptor type 1 (Homo sapiens, UniProt P30989). It is filed as functional.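 Also: Image-based confirmatory dose-response assay measuring agonist activity at NTR1; NTR1-expressing U2OS osteosarcoma cells imaged for beta-arrestin GFP spot formation; agonist potency where compounds increase beta-arrestin recruitment.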
Sequence of Neurotensin receptor type 1 (P30989 whole entry): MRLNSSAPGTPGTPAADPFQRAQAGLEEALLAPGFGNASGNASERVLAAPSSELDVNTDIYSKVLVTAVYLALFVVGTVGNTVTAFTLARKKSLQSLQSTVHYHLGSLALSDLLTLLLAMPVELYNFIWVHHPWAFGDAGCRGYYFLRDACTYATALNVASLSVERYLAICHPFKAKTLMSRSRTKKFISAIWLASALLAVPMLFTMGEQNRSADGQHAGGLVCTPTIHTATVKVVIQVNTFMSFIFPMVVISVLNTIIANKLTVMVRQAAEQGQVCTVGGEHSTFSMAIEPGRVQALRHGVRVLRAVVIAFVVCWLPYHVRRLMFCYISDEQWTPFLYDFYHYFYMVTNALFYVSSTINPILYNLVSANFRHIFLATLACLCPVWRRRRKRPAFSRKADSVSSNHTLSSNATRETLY
The nature of experiment [10]: HEK-293T viability loss after treatment – luminescence, T-cell screen hits, cytotoxicity control for TCR NF-kB inhibitor project, dose response (AID 489026).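 Also: cells exposed to compound about 14 hours before the viability readout.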 Type of experiment: functional, cell-based.
Experiment [11] can be described thus: viability loss in CEM21 cells – cell-based, CellTiter-Glo luminescence, cherry-picked, cytotoxicity control for viral fusion inhibitor project, dose response (AID 652042).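 Also: potency for signal decrease meaning cytotoxicity.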 Type of experiment: functional. In general terms: Cellular ATP, detected with luciferase, serves as a proxy for viable cell number.
Experiment [12] in a line: off-target signal loss in HeLa-CEM21 co-culture – HeLa F-luc CTL cells, cherry-picked, counter-screen for HIV-1 Env fusion inhibitor project, dose response (AID 652040).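 Also: potency for signal decrease marking cytotoxic or nonspecific inhibition.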 Type of experiment: functional, cell-based.
A short description of experiment [13]: toxicity toward HepG2 liver cells – cell-based, plate reader, cherry-pick, antagonist series, cytotoxicity control, dose response (AID 743416). It is filed as functional.
Experiment [14] can be described thus: blockers of bursicon-stimulated LGR2 cAMP reporter – cell-based, HEK293, CRE-luciferase reporter, cherry pick, set 2, dose response (AID 743343).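 Also: transfected cells were stimulated with diluted bursicon conditioned medium after compound addition.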 Type of experiment: functional. For orientation: Reporter assays use an easily measured gene product as a stand-in for the process of interest.
Experiment [15] in a line: blockade of melanocortin 4 receptor signaling – cell-based, plate reader, cherry pick, counter-screen for LGR2 antagonist project, dose response (AID 743444).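 Also: transfected HEK 293 cells stimulated with alpha-MSH peptide; potency of inhibitors of the alpha-MSH evoked signal.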 Type of experiment: functional.
Experiment [16] can be described thus: viability loss in HEK293 cells – cell-based, plate reader, cherry-picked samples, cytotoxicity control, dose response (AID 743446). It is filed as functional.
The test system of experiment [17] is Streptococcus sp. 'group A'. Description: Streptococcus pyogenes SK(-)GAS viability under kanamycin – luminescence, BacTiterGlo, confirmation, counter-screen for streptokinase expression inhibitor project, dose response (AID 1900). It is filed as functional, organism-based.
The target of the next experiment is T3, Streptokinase A (Streptococcus pyogenes serotype M1, UniProt P10520).
T3 sequence (P10520 whole entry): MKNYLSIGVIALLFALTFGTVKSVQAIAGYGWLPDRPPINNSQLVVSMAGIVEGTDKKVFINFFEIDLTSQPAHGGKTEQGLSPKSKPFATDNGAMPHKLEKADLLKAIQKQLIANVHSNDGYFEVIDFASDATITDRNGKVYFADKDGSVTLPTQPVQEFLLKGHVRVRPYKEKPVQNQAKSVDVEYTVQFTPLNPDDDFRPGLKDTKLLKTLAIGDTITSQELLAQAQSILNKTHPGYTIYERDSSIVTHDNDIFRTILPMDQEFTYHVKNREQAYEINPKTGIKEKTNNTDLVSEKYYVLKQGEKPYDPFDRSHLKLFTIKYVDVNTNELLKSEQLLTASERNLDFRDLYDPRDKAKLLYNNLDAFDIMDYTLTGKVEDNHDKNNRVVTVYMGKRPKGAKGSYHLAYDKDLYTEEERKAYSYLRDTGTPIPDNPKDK
Description: viability-normalized secreted streptokinase activity reduction – plasminogen activation absorbance, OD405, dose response (AID 1914).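 Also: secreted streptokinase activity via plasminogen activation per viability signal from cell pellet.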 It is filed as functional, Streptococcus pyogenes M1 GAS.

Another experiment concerns Streptococcus. Description: GAS UMAA2166 growth inhibition – luminescence, BacTiterGlo, counter-screen for streptokinase expression inhibitor project, dose response (AID 1915).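 Also: potency for reduction of bacterial viability or growth.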 It is filed as functional, organism-based.
Experiment [18] in a line: Luminescence Cell-Based Dose Retest to Confirm Inhibitors of Cancer Stem Cells. [Related pubchem assays (depositor defined):AID2717, AID2721]. Type of experiment: functional. Conditions: Homo sapiens.
In another experiment the target is Troponin, cardiac muscle (Homo sapiens, UniProt P19429+P45379+P63316). Description: Fluorescence-based biochemical high throughput dose response assay for activators of the calcium sensitivity of cardiac Regulated Thin Filaments (RTF). [Related pubchem assays (depositor defined):AID493008, AID493018, AID504382, AID504383]. It is filed as protein-complex assay.

The target of experiment [19] is T4, Eukaryotic translation initiation factor 2-alpha kinase 3 (Homo sapiens, UniProt Q9NZJ5).
T4 sequence (Q9NZJ5 whole entry): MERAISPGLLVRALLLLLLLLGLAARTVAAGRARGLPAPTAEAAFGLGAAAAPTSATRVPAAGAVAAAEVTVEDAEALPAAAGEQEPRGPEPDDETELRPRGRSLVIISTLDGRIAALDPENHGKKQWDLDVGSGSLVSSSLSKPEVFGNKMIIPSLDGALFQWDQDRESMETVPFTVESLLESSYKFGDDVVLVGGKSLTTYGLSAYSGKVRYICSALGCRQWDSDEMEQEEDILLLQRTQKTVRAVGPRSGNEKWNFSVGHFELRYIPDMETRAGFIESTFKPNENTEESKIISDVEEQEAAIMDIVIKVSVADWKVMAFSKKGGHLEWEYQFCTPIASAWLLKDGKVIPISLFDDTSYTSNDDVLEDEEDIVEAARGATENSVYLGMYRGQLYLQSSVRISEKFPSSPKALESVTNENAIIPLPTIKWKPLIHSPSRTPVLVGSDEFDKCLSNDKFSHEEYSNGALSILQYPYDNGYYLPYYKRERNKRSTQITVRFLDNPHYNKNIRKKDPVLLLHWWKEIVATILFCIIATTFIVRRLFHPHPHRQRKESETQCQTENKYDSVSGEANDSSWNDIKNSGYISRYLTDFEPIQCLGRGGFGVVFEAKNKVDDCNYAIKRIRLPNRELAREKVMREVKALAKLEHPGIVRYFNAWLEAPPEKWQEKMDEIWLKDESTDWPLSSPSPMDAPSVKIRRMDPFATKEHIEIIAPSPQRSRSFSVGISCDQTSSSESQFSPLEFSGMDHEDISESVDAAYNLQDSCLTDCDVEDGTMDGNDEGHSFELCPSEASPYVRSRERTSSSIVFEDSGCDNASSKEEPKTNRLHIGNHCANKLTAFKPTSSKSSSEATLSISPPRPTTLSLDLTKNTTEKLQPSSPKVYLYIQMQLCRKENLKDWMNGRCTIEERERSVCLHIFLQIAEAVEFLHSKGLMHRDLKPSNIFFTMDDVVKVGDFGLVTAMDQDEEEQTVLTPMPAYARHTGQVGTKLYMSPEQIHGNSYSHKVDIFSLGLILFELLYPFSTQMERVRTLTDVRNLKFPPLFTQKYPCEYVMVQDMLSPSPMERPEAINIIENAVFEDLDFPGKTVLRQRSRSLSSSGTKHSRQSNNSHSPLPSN
Description: Dose response cell-based high-throughput screening assay to measure PERK inhibition. [Related pubchem assays: 1416 ]. It is filed as functional.

The target in experiment [20] is T4, Eukaryotic translation initiation factor 2-alpha kinase 3. Description: Counterscreen assay for PERK inhibitors: Dose response cell-based high throughput screening assay to measure inhibition of PERK at 6 hours. [Related pubchem assays: 1522, 1416 ]. It is filed as functional.
The next experiment has as its target Hexokinase (Trypanosoma brucei, UniProt Q38C41). Description: Confirmation assay for inhibitors of Trypanosoma brucei hexokinase 1-Analogue-first series. [Related pubchem assays (depositor defined):AID1430, AID1632, AID2516, AID2560, AID2579, AID2600, AID449725, AID492951]. It is filed as functional.
In experiment [21] the target is T5, Heat shock factor protein 1 (Mus musculus, UniProt P38532).
T5 sequence (P38532 whole entry): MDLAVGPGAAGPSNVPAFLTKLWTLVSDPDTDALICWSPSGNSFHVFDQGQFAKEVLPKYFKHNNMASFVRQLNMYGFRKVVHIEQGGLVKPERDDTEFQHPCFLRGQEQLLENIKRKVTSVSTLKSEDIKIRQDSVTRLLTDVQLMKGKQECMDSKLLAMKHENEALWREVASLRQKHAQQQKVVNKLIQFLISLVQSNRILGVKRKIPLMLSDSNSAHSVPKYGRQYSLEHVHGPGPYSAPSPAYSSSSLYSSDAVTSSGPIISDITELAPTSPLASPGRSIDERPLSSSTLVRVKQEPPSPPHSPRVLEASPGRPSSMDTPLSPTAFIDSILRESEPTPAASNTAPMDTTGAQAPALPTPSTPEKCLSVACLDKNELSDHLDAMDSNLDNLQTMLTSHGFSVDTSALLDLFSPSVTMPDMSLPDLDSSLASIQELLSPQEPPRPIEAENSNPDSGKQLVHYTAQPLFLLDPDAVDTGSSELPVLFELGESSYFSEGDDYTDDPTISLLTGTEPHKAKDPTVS
Description: enhancement of HSF1-driven luciferase signal – cell-based, NIH3T3, luminescence, dose retest, confirmation (AID 435004).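 Also: stress induced by proteasome inhibitor MG132 added 30 min after compound; luciferase reporter driven by HSF1 response element in NIH3T3 cells; actives raise luminescence as potentiators of the MG132 stress response.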 It is filed as functional.

T2 sequence (Q00975 whole entry): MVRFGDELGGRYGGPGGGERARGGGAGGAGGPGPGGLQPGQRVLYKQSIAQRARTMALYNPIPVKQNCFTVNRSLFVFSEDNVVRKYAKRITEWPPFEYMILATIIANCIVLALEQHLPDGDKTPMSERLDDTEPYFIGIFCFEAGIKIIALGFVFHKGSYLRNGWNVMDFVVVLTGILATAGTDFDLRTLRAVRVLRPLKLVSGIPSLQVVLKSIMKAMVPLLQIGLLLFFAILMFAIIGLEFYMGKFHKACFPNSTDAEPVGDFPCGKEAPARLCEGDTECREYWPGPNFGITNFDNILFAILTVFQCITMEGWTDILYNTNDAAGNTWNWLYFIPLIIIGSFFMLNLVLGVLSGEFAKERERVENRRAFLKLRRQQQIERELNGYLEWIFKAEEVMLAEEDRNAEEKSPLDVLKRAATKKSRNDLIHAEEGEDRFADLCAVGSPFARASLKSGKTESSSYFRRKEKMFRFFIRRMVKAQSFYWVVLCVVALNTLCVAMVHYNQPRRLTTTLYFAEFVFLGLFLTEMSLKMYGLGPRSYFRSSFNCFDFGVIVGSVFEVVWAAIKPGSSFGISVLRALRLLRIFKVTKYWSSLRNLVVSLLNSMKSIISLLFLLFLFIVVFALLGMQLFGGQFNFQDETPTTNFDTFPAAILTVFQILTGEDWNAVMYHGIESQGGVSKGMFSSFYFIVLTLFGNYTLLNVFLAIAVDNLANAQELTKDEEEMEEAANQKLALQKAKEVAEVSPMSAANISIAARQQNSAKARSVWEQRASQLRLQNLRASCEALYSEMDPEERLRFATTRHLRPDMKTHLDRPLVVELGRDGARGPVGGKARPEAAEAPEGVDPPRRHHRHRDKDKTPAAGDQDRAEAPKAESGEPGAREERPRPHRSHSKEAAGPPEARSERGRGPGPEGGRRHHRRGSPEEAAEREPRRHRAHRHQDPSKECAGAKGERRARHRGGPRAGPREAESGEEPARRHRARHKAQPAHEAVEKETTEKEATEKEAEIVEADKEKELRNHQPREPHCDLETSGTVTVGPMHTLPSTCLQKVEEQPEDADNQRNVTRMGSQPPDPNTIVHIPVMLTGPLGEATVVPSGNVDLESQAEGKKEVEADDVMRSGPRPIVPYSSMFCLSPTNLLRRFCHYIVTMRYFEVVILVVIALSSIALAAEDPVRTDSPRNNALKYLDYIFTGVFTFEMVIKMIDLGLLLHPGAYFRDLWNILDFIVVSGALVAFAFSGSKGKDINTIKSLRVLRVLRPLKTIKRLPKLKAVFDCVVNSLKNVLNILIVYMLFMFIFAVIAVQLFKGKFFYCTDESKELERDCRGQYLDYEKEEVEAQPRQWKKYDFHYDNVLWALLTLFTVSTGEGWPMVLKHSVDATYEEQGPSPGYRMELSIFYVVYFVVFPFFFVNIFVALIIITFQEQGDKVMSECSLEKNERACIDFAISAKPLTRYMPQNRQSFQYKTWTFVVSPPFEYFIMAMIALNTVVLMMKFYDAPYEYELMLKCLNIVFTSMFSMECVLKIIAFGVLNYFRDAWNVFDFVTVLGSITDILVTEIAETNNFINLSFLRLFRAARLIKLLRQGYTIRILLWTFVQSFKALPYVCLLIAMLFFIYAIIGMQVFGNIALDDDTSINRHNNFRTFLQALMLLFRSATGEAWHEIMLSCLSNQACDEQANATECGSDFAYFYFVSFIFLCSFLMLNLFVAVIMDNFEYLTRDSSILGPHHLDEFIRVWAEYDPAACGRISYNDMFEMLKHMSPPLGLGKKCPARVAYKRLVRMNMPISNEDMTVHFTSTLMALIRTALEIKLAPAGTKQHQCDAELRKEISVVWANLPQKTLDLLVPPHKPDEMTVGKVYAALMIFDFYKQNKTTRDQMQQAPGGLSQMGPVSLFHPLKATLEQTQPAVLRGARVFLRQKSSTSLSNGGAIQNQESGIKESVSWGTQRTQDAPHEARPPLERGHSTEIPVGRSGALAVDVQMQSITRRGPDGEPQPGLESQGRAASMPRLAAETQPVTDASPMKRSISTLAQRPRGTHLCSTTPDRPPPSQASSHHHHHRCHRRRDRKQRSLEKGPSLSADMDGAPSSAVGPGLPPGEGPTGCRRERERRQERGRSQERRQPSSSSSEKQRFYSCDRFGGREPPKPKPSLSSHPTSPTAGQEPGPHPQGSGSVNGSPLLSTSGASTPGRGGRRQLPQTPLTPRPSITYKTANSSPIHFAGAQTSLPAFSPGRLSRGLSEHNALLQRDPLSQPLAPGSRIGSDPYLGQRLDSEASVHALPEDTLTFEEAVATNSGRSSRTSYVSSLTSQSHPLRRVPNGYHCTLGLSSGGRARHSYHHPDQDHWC
T2 sequence (Q02410 whole entry): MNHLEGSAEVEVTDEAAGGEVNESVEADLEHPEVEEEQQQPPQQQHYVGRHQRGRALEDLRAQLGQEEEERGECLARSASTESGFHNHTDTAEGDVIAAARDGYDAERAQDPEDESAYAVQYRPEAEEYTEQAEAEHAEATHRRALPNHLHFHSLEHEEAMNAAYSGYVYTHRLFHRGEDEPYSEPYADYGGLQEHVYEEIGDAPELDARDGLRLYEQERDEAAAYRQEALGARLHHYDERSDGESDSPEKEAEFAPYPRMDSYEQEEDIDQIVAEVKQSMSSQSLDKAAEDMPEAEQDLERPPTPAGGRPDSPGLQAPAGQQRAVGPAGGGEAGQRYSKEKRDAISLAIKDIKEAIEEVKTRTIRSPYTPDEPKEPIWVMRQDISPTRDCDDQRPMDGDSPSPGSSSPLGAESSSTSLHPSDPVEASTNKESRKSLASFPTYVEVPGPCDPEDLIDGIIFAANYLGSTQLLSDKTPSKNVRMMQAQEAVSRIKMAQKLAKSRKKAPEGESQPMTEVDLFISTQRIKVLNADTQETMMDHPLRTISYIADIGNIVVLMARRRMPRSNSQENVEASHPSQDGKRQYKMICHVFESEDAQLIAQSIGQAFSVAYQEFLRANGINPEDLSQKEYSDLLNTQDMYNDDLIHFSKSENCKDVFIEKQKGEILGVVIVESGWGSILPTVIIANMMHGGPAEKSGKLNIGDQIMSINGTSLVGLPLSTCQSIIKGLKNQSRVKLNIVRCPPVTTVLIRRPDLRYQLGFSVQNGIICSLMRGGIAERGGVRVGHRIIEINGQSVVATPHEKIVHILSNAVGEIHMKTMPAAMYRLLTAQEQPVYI
Sequence of Hexokinase (Q38C41 whole entry): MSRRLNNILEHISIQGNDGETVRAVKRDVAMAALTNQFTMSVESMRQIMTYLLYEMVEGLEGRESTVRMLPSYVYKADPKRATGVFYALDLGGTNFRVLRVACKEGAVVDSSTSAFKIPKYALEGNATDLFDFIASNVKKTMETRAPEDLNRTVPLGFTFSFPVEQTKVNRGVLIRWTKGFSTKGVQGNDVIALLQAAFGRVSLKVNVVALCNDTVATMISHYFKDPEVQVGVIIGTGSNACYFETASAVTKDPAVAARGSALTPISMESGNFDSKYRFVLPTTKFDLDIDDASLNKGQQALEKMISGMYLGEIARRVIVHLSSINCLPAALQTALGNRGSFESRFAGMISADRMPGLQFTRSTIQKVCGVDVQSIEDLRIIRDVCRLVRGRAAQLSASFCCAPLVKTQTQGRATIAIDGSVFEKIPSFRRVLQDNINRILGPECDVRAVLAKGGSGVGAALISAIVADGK
Sequence of DNA dC->dU-editing enzyme APOBEC-3A (P31941 whole entry): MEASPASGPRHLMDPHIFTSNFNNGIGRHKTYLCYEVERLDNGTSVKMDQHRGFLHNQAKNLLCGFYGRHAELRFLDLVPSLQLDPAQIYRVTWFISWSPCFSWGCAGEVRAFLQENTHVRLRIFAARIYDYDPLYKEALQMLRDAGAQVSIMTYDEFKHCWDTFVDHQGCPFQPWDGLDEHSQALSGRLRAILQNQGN
Sequence of DNA dC->dU-editing enzyme APOBEC-3G (Q9HC16 whole entry): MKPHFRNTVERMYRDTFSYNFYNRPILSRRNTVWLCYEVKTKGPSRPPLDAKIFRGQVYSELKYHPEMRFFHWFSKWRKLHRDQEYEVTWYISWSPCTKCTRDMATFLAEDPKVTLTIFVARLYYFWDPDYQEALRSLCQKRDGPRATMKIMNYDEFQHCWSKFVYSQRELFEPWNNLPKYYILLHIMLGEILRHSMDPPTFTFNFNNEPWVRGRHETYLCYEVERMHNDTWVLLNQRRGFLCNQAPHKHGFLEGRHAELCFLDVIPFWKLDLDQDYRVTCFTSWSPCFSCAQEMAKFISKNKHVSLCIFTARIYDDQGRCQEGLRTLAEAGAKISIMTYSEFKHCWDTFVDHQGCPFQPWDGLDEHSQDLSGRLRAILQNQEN

Consider `N#Cc1ccc(CSc2nnc(Cc3cccs3)n2Cc2ccco2)cc1`, for which the figures for the IC50 in experiment [1] and in [2] were > 43.8 µM (not active) and 23 µM (not active), respectively.

On to `C=C(C)C(=O)Nc1cccc(C2=NOC3(C2)C[C@@H](C(N)=O)N(C(=O)c2ccc(OC)cc2)C3)c1` (some centres undefined), for which the IC50 (usually the concentration at which inhibition is half-maximal) was > 56.8 µM (not active) in [3], > 50 µM (inactive) in [4] and 38.9 µM (active) in the experiment “cells”.

`CSc1ncccc1C(=O)OCCCC(=O)c1ccc(F)cc1`: the AC50 – broadly, the concentration at which the activity in the assay is half-maximal – in the experiment on HeLa was 91.9 µM (active).

As to `Cn1c(CNC(=O)c2ccco2)nnc1SCC(=O)N1c2ccccc2Sc2ccccc21`, the IC50 is 4 µM (active) in experiment [5] and 5.8 µM (active) in experiment [6].

For the compound `Cc1ccc(-n2ncc3c(N4CCN(c5ccccc5)CC4)ncnc32)c(C)c1`, the EC50 (usually the midpoint of the concentration-response curve) was 13.8 µM (active) in [7], 8.48 µM (active) in experiment [8] and 9.82 µM (active) in [9]. For the same compound, the IC50 in experiment [10] is 29.6 µM (inactive). Further, the AC50 in experiment [11] is 17.7 µM (active); in [12] it was 32.4 µM (active); in [13], 34.7 µM (active); in [14], 13.8 µM (active); in experiment [15], 16.5 µM (active); in experiment [16] it was 14.4 µM (active).

As for `O=c1/c(=C\c2cccc(O)c2)sc2nc(-c3ccccc3)c(-c3ccccc3)n12`, the EC50 in experiment [17] is 3.01 µM (active); on Streptokinase A it was 4.22 µM (active); in the experiment on Streptococcus, 51.1 µM (active); in experiment [9], 27.2 µM (inactive). In addition, the AC50 in experiment [18] is 2.59 µM (active).

Turning to `NS(=O)(=O)c1ccc2nc(NC(=O)Nc3ccc(F)cc3)sc2c1`, the IC50 in experiment [1] and in [2] was > 43.8 µM (not active) each time.

For the compound `CC(C)Sc1nc2cc(Br)ccc2[nH]1`, the EC50 at Troponin, cardiac muscle was > 71.4 µM (inactive).

`COC(=O)Cc1ccc(NC(S)=NNC(=O)C2CC2)cc1`: the EC50 in experiment [19] and in experiment [20] was > 55.7 µM (not active) each time.

With `O=C(O)c1ccc(Cl)cc1NC(=O)c1coc2ccccc12`, the IC50 at Hexokinase is > 25 µM (inactive).

Consider `Cn1c(=O)c2c(nc(N/N=C/c3ccc(OC(=O)c4ccco4)cc3)n2Cc2ccc(F)cc2)n(C)c1=O`, for which, in the experiment on HeLa, the AC50 was 43.7 µM (active). Further, the EC50 in experiment [21] was 3.74 µM (active).

In the case of `CCc1ccc(-n2c(SCC(=O)N3Cc4ccccc4CC3C(=O)O)nnc2-c2ccncc2)cc1` (centres undefined), the EC50 in experiment [19] and in [20] was > 55.7 µM (not active) each time.

`CC(=O)Nc1cc(Cl)ccc1C(=O)O`: the IC50 at Hexokinase is > 25 µM (inactive).
